Measured values as given in PubChem BioAssay AID248 (DTP/NCI, 2004).
Values joined by “and” are separate entries in the source; they are usually repeats but may differ in a detail not shown here. Identical values can stand only once. Inconclusive results and toxic doses are left out. No stated cut-off is given here; in the data, active means T/C of 150% or more; inactive means T/C below 125%.

Test system: L1210 leukemia ip in BDF1 mice, survival T/C
Experiment: NCI In Vivo Anticancer Drug Screen. Data for tumor model L1210 Leukemia (intraperitoneal) in B6D2F1 (BDF1) mice
Conditions: endpoint: mean survival time, higher = longer survival
Procedure, shortened: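 Tumor was transplanted into mice, which were then dosed with test compound or vehicle alone. Survival was recorded for each group, and the treated figure was expressed relative to the control figure.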

[1] = dose: 50.0 mg/kg/injection, schedule: Q01DX001 (ip), vehicle: Klucel (hydroxypropylcellulose) (HPC)
[2] = dose: 100.0 mg/kg/injection, schedule: Q01DX001 (ip), vehicle: Klucel (hydroxypropylcellulose) (HPC)
[3] = dose: 200.0 mg/kg/injection, schedule: Q01DX001 (ip), vehicle: Klucel (hydroxypropylcellulose) (HPC)
[4] = dose: 12.5 mg/kg/injection, schedule: Q01DX001 (ip), vehicle: Klucel (hydroxypropylcellulose) (HPC)
[5] = dose: 25.0 mg/kg/injection, schedule: Q01DX001 (ip), vehicle: Klucel (hydroxypropylcellulose) (HPC)
[6] = dose: 100.0 mg/kg/injection, schedule: Q01DX009 (ip), vehicle: Klucel (hydroxypropylcellulose) (HPC)
[7] = dose: 200.0 mg/kg/injection, schedule: Q01DX009 (ip), vehicle: Klucel (hydroxypropylcellulose) (HPC)
[8] = dose: 400.0 mg/kg/injection, schedule: Q01DX009 (ip), vehicle: Klucel (hydroxypropylcellulose) (HPC)
[9] = dose: 100.0 mg/kg/injection, schedule: Q04DX002 (ip), vehicle: Klucel (hydroxypropylcellulose) (HPC)
[10] = dose: 200.0 mg/kg/injection, schedule: Q04DX002 (ip), vehicle: Klucel (hydroxypropylcellulose) (HPC)
[11] = dose: 400.0 mg/kg/injection, schedule: Q04DX002 (ip), vehicle: Klucel (hydroxypropylcellulose) (HPC)
[12] = dose: 400.0 mg/kg/injection, schedule: Q01DX001 (ip), vehicle: Klucel (hydroxypropylcellulose) (HPC)
[13] = dose: 100.0 mg/kg/injection, schedule: Q04DX002 (ip), vehicle: saline with Tween-80
[14] = dose: 200.0 mg/kg/injection, schedule: Q04DX002 (ip), vehicle: saline with Tween-80
[15] = dose: 400.0 mg/kg/injection, schedule: Q04DX002 (ip), vehicle: saline with Tween-80

Measured: T/C

CN(C)C=Nc1ccc(Cl)cc1
inactive: dose: 25.0 mg/kg/injection, schedule: Q01DX001 (ip), vehicle: other 93 % of control | dose: 50.0 mg/kg/injection, schedule: Q01DX001 (ip), vehicle: other 101 % of control | dose: 50.0 mg/kg/injection, schedule: Q01DX001 (ip), vehicle: saline 100 % of control | dose: 50.0 mg/kg/injection, schedule: Q04DX003 (ip), vehicle: other 90 % of control | dose: 100.0 mg/kg/injection, schedule: Q01DX001 (ip), vehicle: other 103 % of control and 91 % of control | dose: 100.0 mg/kg/injection, schedule: Q04DX003 (ip), vehicle: other 102 % of control | dose: 200.0 mg/kg/injection, schedule: Q04DX003 (ip), vehicle: other 101 % of control

C=CCN1C(=O)C=CC1=O
inactive: dose: 3.0 mg/kg/injection, schedule: Q04DX002 (ip), vehicle: Klucel (hydroxypropylcellulose) (HPC) 108 % of control | dose: 6.0 mg/kg/injection, schedule: Q04DX002 (ip), vehicle: Klucel (hydroxypropylcellulose) (HPC) 93 % of control

O=[N+]([O-])c1ccc(Cl)c(I)c1
inactive: dose: 12.5 mg/kg/injection, schedule: Q01DX009 (ip), vehicle: saline with Tween-80 94 % of control | dose: 25.0 mg/kg/injection, schedule: Q01DX009 (ip), vehicle: saline with Tween-80 94 % of control | dose: 50.0 mg/kg/injection, schedule: Q01DX009 (ip), vehicle: saline + alcohol 92 % of control | dose: 50.0 mg/kg/injection, schedule: Q01DX009 (ip), vehicle: saline with Tween-80 94 % of control | dose: 200.0 mg/kg/injection, schedule: Q01DX009 (ip), vehicle: saline + alcohol 92 % of control

CCOC(=O)c1[nH]c(-c2ccccc2)c(/C=N\O)c1-c1ccccc1
inactive: [1] 105 % of control | [2] 100 % of control | [3] 93 % of control

Cc1nnc2ncnc(SCc3ccccc3)c2n1
inactive: [4] 100 % of control | [5] 95 % of control and 91 % of control | [1] 93 % of control | [2] 90 % of control

NNC(=O)C(CSC(c1ccccc1)c1ccccc1)NC(=O)C(CSC(c1ccccc1)(c1ccccc1)c1ccccc1)NC(=O)OCc1ccccc1 (centres undefined)
inactive: [6] 97 % of control | [7] 97 % of control | [8] 94 % of control

COc1cc(C=C(C#N)C#N)ccc1OC(=O)c1cc(OC)c(OC)c(OC)c1
inactive: dose: 100.0 mg/kg/injection, schedule: Q04DX002 (ip), vehicle: gum acacia 98 % of control | dose: 200.0 mg/kg/injection, schedule: Q04DX002 (ip), vehicle: gum acacia 92 % of control | dose: 400.0 mg/kg/injection, schedule: Q04DX002 (ip), vehicle: gum acacia 92 % of control

COc1ccc(-n2cccc2C(N)=O)cc1OC
inactive: [9] 103 % of control | [10] 100 % of control | [11] 90 % of control

Cc1ccccc1S(=O)(=O)Cc1cc(Cl)cc(Cl)c1O
inactive: dose: 100.0 mg/kg/injection, schedule: Q01DX001 (ip), vehicle: saline 90 % of control | dose: 200.0 mg/kg/injection, schedule: Q01DX001 (ip), vehicle: saline 88 % of control | dose: 400.0 mg/kg/injection, schedule: Q01DX001 (ip), vehicle: saline 97 % of control

CC(=O)Nc1cc(C)ccc1C
inactive: [1] 101 % of control | [2] 91 % of control and 101 % of control | [3] 94 % of control and 104 % of control | [12] 94 % of control

Cc1csc2[nH]c(=O)[nH]c(=O)c12
inactive: dose: 100.0 mg/kg/injection, schedule: Q01DX009 (ip), vehicle: water 104 % of control | dose: 100.0 mg/kg/injection, schedule: Q04DX003 (ip), vehicle: water 112 % of control | dose: 200.0 mg/kg/injection, schedule: Q04DX003 (ip), vehicle: water 115 % of control | dose: 400.0 mg/kg/injection, schedule: Q01DX009 (ip), vehicle: water 86 % of control | dose: 400.0 mg/kg/injection, schedule: Q04DX003 (ip), vehicle: water 118 % of control

CCN(C(=O)CC(C)=O)c1ccccc1
inactive: dose: 100.0 mg/kg/injection, schedule: Q01DX009 (ip), vehicle: saline with Tween-80 91 % of control | dose: 100.0 mg/kg/injection, schedule: Q04DX003 (ip), vehicle: saline with Tween-80 98 % of control | dose: 200.0 mg/kg/injection, schedule: Q01DX009 (ip), vehicle: saline with Tween-80 93 % of control | dose: 200.0 mg/kg/injection, schedule: Q04DX003 (ip), vehicle: saline with Tween-80 98 % of control | dose: 400.0 mg/kg/injection, schedule: Q01DX009 (ip), vehicle: saline with Tween-80 94 % of control | dose: 400.0 mg/kg/injection, schedule: Q04DX003 (ip), vehicle: saline with Tween-80 98 % of control

CC(C)OC(=O)C1(N)CCCC1
inactive: dose: 25.0 mg/kg/injection, schedule: Q01DX Z (ip), vehicle: carboxymethylcellulose (CMC) 105 % of control | dose: 30.0 mg/kg/injection, schedule: Q01DX Z (ip), vehicle: saline 113 % of control | dose: 40.0 mg/kg/injection, schedule: Q01DX Z (ip), vehicle: other 119 % of control | dose: 45.0 mg/kg/injection, schedule: Q01DX Z (ip), vehicle: saline 118 % of control | dose: 50.0 mg/kg/injection, schedule: Q01DX Z (ip), vehicle: carboxymethylcellulose (CMC) 122 % of control | dose: 150.0 mg/kg/injection, schedule: Q01DX Z (ip), vehicle: saline 89 % of control | dose: 200.0 mg/kg/injection, schedule: Q01DX Z (ip), vehicle: carboxymethylcellulose (CMC) 88 % of control

O=CNC(CSC(c1ccccc1)c1ccccc1)C(=O)O (centres undefined)
inactive: dose: 40.0 mg/kg/injection, schedule: Q01DX009 (ip), vehicle: Klucel (hydroxypropylcellulose) (HPC) 108 % of control | dose: 75.0 mg/kg/injection, schedule: Q01DX001 (ip), vehicle: Klucel (hydroxypropylcellulose) (HPC) 86 % of control | dose: 75.0 mg/kg/injection, schedule: Q01DX009 (ip), vehicle: Klucel (hydroxypropylcellulose) (HPC) 105 % of control | dose: 150.0 mg/kg/injection, schedule: Q01DX001 (ip), vehicle: Klucel (hydroxypropylcellulose) (HPC) 93 % of control | dose: 150.0 mg/kg/injection, schedule: Q01DX009 (ip), vehicle: Klucel (hydroxypropylcellulose) (HPC) 103 % of control

Cc1ccc2c(c1)C1(C)C=CC(=O)CC1O2 (centres undefined)
inactive: [13] 106 % of control | [14] 110 % of control | [15] 106 % of control

Clc1nc(I)c(Cl)c(C(Cl)(Cl)Cl)n1
inactive: [4] 89 % of control | [5] 93 % of control | [1] 89 % of control

Cc1ccc(NC(=O)c2cccc(F)c2)cc1Cl
inactive: [2] 97 % of control | [6] 94 % of control and 92 % of control | [9] 101 % of control and 104 % of control | [3] 100 % of control | [7] 105 % of control and 92 % of control | [10] 96 % of control and 104 % of control | [12] 100 % of control | [8] 97 % of control and 92 % of control | [11] 104 % of control and 109 % of control

Cc1cc2c(=S)nc(N)[nH]c2nc1C
inactive: dose: 100.0 mg/kg/injection, schedule: Q01DX Z (ip), vehicle: methylcellulose (MC) 105 % of control | dose: 200.0 mg/kg/injection, schedule: Q01DX Z (ip), vehicle: methylcellulose (MC) 103 % of control

CCN(CC)CCCCCOC(=O)c1ccccc1
inactive: dose: 50.0 mg/kg/injection, schedule: Q01DX009 (ip), vehicle: Klucel (hydroxypropylcellulose) (HPC) 92 % of control | dose: 100.0 mg/kg/injection, schedule: Q04DX003 (ip), vehicle: Klucel (hydroxypropylcellulose) (HPC) 97 % of control | [7] 96 % of control | dose: 200.0 mg/kg/injection, schedule: Q04DX003 (ip), vehicle: Klucel (hydroxypropylcellulose) (HPC) 107 % of control

CCN(CC)CCCN=C(N)CCl
inactive: dose: 12.5 mg/kg/injection, schedule: Q01DX009 (ip), vehicle: Klucel (hydroxypropylcellulose) (HPC) 96 % of control | dose: 25.0 mg/kg/injection, schedule: Q01DX009 (ip), vehicle: Klucel (hydroxypropylcellulose) (HPC) 96 % of control | dose: 25.0 mg/kg/injection, schedule: Q04DX002 (ip), vehicle: Klucel (hydroxypropylcellulose) (HPC) 114 % of control | dose: 50.0 mg/kg/injection, schedule: Q04DX002 (ip), vehicle: Klucel (hydroxypropylcellulose) (HPC) 107 % of control | [9] 95 % of control

c1ccn2nnc(-c3nnn4ccccc34)c2c1
inactive: [13] 102 % of control | [14] 95 % of control | [15] 91 % of control
